Molecular target: Insulin-like growth factor 1 receptor (Homo sapiens) (UniProt P08069)
Test: Inhibition of IGFR1

Chain of Insulin-like growth factor 1 receptor (Homo sapiens) (P08069 whole entry, looked up): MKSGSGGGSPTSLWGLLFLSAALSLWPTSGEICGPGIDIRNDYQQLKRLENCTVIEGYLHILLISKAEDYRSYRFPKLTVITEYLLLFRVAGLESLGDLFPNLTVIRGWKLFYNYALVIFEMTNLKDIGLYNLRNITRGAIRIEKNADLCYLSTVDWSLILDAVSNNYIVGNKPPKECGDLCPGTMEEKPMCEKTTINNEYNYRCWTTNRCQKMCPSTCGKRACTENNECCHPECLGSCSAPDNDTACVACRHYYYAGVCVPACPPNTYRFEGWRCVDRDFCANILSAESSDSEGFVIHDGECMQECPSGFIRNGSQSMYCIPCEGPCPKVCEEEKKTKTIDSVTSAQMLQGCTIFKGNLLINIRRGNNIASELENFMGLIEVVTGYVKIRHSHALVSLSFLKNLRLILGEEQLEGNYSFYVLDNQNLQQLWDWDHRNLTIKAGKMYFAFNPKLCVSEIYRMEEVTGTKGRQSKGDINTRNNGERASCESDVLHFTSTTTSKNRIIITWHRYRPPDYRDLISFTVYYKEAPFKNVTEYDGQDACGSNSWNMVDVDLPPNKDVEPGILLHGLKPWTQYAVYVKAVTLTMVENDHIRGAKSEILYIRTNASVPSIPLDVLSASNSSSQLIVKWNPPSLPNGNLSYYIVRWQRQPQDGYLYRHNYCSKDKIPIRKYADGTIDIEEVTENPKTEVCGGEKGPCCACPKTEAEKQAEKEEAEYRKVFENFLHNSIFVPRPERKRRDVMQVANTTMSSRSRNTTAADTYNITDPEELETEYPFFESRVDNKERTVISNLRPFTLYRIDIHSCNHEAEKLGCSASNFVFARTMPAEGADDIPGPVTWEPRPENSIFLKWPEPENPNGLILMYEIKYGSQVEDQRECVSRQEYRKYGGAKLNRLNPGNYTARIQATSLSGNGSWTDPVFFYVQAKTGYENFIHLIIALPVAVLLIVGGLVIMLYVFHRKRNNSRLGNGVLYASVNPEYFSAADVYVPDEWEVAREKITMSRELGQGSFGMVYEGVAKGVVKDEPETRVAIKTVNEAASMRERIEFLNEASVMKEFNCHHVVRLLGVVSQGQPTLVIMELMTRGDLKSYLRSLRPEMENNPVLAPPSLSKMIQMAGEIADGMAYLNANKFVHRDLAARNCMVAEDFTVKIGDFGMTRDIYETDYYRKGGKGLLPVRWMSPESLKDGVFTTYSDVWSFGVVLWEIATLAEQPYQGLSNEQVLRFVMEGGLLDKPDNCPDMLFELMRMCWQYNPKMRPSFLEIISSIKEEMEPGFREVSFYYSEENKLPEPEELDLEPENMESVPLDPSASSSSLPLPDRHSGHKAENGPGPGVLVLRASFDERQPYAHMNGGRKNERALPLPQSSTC

O=C(Nc1ccc(F)cc1F)c1cccnc1Nc1ccc(Oc2ccnc3[nH]ccc23)c(F)c1 [2-(4-(1H-pyrrolo[2,3-b]pyridin-4-yloxy)-3-fluorophenylamino)-N-(2,4-difluorophenyl)nicotinamide]
IC50: > 50 µM

— BindingDB's records for doi:10.1016/j.bmcl.2010.01.042 (Bristol Myers Squibb, 2010)
